Reference: patent publication US7205295B2, “Benzoxazin-3-ones and derivatives thereof as therapeutic agents” (Warner-Lambert Company LLC, priority 2002, dated 2007)

Molecular target: T1, PI3Kγ (p101/p110γ protein) (Homo sapiens, UniProt P48736)
T1 construct: HA; made in house; host or cells: Spodoptera frugiperda (Sf9) cells, baculovirus co-infection
Assay: PI3Kγ In Vitro Kinase Assay
Type: biochemical
Details: purified recombinant p101/p110γ with G protein β1/γ2 subunits; 20 μM ATP, 25 μM PIP2; 20 minutes at room temperature
Experimental: Spodtera frugiperda cells, grown in ESF921 media, were coinfected with baculovirus expressing a glu-tagged p101 and baculovirus expressing an HA-tagged p110γ, at a 3:1 ratio of p101 baculovirus to p110γ baculovirus. Sf9 cells were grown to 1×10^7 total cells/mL in 10L bioreactors and harvested 48-72 hours post infection. Samples of infected cells were then tested for expression of p101/p110γ PI3 kinase by immunoprecipitation and Western Blot analysis methods (see below). […] NaCl was added to 150 mM, and sodium cholate was added to 1% and mixed for another 45 minutes. The lysates were clarified by centrifugation for 25 minutes at 14,000 rpm. The lysates were then loaded over anti-glu-linked Protein-G Sepaharose beads (Covance Research Products, Richmond, Calif.) using 20 mL resin/50 g cell paste. […] PI3Kγ was eluted with 6 column volumes of wash buffer that contain 100 μg/mL of a peptide that competes for binding of the glu tag. […] The fractions were stored at -80° C. until further use. Spodtera frugiperda cells were coinfected with baculovirus expressing a glu-tagged G protein β1 and baculovirus expressing a G protein […] at a 1:1 ratio of glu-tagged G protein β1 baculovirus to G protein β2 baculovirus. Sf9 cells are grown in 10 L bioreactors and harvested 48-72 hours post infection. Samples of infected cells were tested for G protein β1/β2 expression by Western Blot analysis, as described below. Cell lysates were homogenized and loaded onto a column of glu-tagged beads as in Biological Example 1 and competed off the column with a glu peptide as described in Biological Example 1. The inhibitory properties of the compounds in Table 1 were assayed in an in vitro PI3K assay. In a 96-well polypropylene plate, each well was spotted with 2 μL of […] the desired final concentration of compound in DMSO. Purified recombinant p101/p110γ protein (0.03 μg; 2.7 nM) and G protein β1/γ2 subunits (0.09 μg; 57.7 nM) for each reaction was combined in the assay buffer (30 mM HEPES, 100 mM NaCl, 1 mM EGTA, and 1 mM DTT). ATP and [γ-^32P-ATP] (0.09 μCi) were added to this mixture so that the final ATP concentration in the reaction was 20 μM. Lipid micelles were formed by sonicating phosphatidylinositol-4,5-diphosphate (PIP2), phosphatidylethanolamine (PE), and Na-cholate in the assay buffer for 10 minutes, adding MgCL2 and incubating on ice for 20 minutes, for final concentrations of 25 μM PIP2, 300 [M PE, 0.02% Na-cholate, and 10 mM MgCl2 in the reaction. The reactions were started by adding equal volumes lipid and enzyme mixture in a total volume of 50 μL, allowed to run for 20 minutes at room temperature, and stopped with 100 μL 75 mM H3PO4. The lipid product was transferred to a glass fiber filter plate and washed with 75 mM H3PO4 several times. The presence of radioactive lipid product (PIP3) was measured by adding Wallac Optiphase mix to each well and counting in a Wallac 1450 Trilux plate reader (PerkinElmer Life Sciences Inc., Boston, Mass. 02118).

T1 sequence (P48736 whole entry, species assumed): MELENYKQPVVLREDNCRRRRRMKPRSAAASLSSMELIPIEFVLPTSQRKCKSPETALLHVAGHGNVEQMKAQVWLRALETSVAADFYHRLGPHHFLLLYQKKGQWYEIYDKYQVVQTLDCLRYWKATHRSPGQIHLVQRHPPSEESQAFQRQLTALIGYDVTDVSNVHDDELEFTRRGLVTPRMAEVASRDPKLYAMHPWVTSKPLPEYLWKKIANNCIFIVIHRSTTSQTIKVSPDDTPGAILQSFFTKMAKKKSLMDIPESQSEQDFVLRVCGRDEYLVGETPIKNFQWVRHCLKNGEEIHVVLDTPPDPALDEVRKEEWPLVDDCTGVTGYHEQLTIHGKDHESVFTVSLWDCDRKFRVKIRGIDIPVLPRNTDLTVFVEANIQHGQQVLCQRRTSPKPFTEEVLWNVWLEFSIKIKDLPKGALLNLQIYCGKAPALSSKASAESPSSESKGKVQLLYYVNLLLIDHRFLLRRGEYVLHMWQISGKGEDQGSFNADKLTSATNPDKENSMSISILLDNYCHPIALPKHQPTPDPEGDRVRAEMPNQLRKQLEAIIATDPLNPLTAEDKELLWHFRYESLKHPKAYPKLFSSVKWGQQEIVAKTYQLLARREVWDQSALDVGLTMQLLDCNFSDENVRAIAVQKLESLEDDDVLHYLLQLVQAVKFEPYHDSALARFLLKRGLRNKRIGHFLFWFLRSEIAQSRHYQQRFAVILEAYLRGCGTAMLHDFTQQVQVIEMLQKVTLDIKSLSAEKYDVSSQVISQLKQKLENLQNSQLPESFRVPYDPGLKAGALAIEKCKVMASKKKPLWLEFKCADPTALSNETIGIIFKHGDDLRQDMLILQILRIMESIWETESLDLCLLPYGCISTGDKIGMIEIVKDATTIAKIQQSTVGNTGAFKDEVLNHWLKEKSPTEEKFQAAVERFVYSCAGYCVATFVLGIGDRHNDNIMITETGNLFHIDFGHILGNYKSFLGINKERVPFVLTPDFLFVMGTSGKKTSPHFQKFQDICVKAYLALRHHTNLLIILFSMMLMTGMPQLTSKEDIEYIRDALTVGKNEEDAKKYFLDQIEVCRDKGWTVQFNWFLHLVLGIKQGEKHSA
T1 sequence (Q8WYR1 whole entry partner, species assumed): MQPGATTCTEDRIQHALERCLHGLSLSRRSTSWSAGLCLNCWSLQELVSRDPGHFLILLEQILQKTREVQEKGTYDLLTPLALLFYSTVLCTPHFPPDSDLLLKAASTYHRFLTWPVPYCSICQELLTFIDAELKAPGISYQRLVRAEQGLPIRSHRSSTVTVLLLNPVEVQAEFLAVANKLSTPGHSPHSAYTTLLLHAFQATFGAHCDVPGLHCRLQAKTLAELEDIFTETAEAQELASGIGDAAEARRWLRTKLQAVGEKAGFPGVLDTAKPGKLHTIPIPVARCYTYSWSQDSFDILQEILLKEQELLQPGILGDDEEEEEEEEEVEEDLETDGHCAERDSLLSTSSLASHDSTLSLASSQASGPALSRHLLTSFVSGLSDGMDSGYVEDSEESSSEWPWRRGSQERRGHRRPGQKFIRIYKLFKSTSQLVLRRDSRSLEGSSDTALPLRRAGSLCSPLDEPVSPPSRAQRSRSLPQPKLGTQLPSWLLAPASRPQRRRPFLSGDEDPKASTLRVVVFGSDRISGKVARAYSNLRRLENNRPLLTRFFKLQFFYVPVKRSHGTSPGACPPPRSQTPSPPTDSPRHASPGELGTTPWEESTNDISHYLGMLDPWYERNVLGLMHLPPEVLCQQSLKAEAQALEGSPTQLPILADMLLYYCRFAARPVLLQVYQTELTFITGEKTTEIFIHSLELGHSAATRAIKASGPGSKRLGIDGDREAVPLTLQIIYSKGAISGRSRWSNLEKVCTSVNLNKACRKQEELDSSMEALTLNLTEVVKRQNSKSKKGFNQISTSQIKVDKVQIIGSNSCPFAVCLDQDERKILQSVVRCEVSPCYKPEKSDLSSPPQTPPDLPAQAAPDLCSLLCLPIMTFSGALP

IC50	SMILES
3 nM	C[C@@H]1CCC[C@H](C)N1Cc1ccc(CN2C(=O)COc3ccc(C=C4SC(=S)NC4=O)cc32)cc1 [Example 27, 4-[4-((2S, 6R)-2,6-Dimethyl-piperidin-1-ylmethyl)-benzyl]-6-(4-oxo-2-thioxo-thiazolidin-5-ylidenemethyl)-4H-1,4-benzoxazin-3-one]
3 nM	Cc1cc(C)cc(CN2C(=O)COc3c(C)cc(C=C4SC(=S)NC4=O)cc32)c1 [Example 28, 4-(3,5-Dimethyl-benzyl)-8-methyl-6-(4-oxo-2-thioxo-thiazolidin-5-ylidenemethyl)-4H-1,4-benzoxazin-3-one]
31 nM	O=C1NC(=S)SC1=Cc1ccc2c(c1)N(Cc1cc(C(F)(F)F)cc(C(F)(F)F)c1)C(=O)CO2 [Example 29, 4-(3,5-Bis-trifluoromethyl-benzyl)-6-(4-oxo-2-thioxo-thiazolidin-5-ylidenemethyl)-4H-1,4-benzoxazin-3-one]
2 nM	Cc1cc(C)cc(CCN2C(=O)COc3ccc(C=C4SC(=S)NC4=O)cc32)c1 [Example 30, 4-[2-(3,5-Dimethylphenyl)-ethyl]-6-(4-oxo-2-thioxo-thiazolidin-5-ylidenemethyl)-4H-1,4-benzoxazin-3-one]
83 nM	Cc1cccc(C)c1CN1C(=O)COc2ccc(C=C3SC(=S)NC3=O)cc21 [Example 31, 4-(2,6-Dimethyl-benzyl)-6-(4-oxo-2-thioxo-thiazolidin-5-ylidenemethyl)-4H-1,4-benzoxazin-3-one]
12 nM	CC(C)(C)c1cc(CN2C(=O)COc3ccc(C=C4SC(=S)NC4=O)cc32)cc(C(C)(C)C)c1 [Example 32, 4-(3,5-Di-tert-butyl-benzyl)-6-(4-oxo-2-thioxo-thiazolidin-5-ylidenemethyl)-4H-1,4-benzoxazin-3-one]
4 nM	CN1CCN(Cc2ccc(CN3C(=O)COc4ccc(C=C5SC(=S)NC5=O)cc43)cc2)CC1 [Example 33, 4-[4-(4-Methyl-piperazin-1-ylmethyl)-benzyl]-6-(4-oxo-2-thioxo-thiazolidin-5-ylidenemethyl)-4H-1,4-benzoxazin-3-one]
3 nM	O=C1NC(=S)SC1=Cc1ccc2c(c1)N(CCCc1ccccc1)C(=O)CO2 [Example 34, 6-(4-Oxo-2-thioxo-thiazolidin-5-ylidenemethyl)-4-(3-phenyl-propyl)-4H-1,4-benzoxazin-3-one]
12 nM	O=C1NC(=S)SC1=Cc1ccc2c(c1)N(Cc1ccc(CN3CCN(c4ccccc4)CC3)cc1)C(=O)CO2 [Example 35, 6-(4-Oxo-2-thioxo-thiazolidin-5-ylidenemethyl)-4-[4-(4-phenyl-piperazin-1-ylmethyl)-benzyl]-4H-1,4-benzoxazin-3-one]
2 nM	CC(C)(C)c1ccc(CN2C(=O)COc3ccc(C=C4SC(=S)NC4=O)cc32)cc1 [Example 36, 4-(4-tert-Butyl-benzyl)-6-(4-oxo-2-thioxo-thiazolidin-5-ylidenemethyl)-4H-1,4-benzoxazin-3-one]
1620 nM	C[C@@H]1Oc2ccc(C=C3SC(=S)NC3=O)cc2N(Cc2cc(C(C)(C)C)cc(C(C)(C)C)c2)C1=O [Example 37, (S)-4-(3,5-Di-tert-butyl-benzyl)-2-methyl-6-(4-oxo-2-thioxo-thiazolidin-5-ylidenemethyl)-4H-1,4-benzoxazin-3-one]
6 nM	O=C1NC(=S)SC1=Cc1ccc2c(c1)N(Cc1cccc(-c3ccccc3)c1)C(=O)CO2 [Example 38, 4-Biphenyl-3-ylmethyl-6-(4-oxo-2-thioxo-thiazolidin-5-ylidenemethyl)-4H-1,4-benzoxazin-3-one]
335 nM	Cc1cc(CN2C(=O)COc3ccc(C=C4SC(=S)NC4=O)cc32)cc(C)c1CN1CCOCC1 [Example 39, 4-(3,5-Dimethyl-4-morpholin-4-ylmethyl-benzyl)-6-(4-oxo-2-thioxo-thiazolidin-5-ylidenemethyl)-4H-1,4-benzoxazin-3-one]
15 nM	O=C1NC(=S)SC1=Cc1ccc2c(c1)N(Cc1cccc(I)c1)C(=O)CO2 [Example 40, 4-(3-Iodo-benzyl)-6-(4-oxo-2-thioxo-thiazolidin-5-ylidenemethyl)-4H-1,4-benzoxazin-3-one]
61 nM	O=C1NC(=S)SC1=Cc1ccc2c(c1)N(Cc1cc(Br)cc(I)c1)C(=O)CO2 [Example 41, 4-(3-Bromo-5-iodo-benzyl)-6-(4-oxo-2-thioxo-thiazolidin-5-ylidenemethyl)-4H-1,4-benzoxazin-3-one]
41 nM	Cc1cc(CN2CCOCC2)cc(CN2C(=O)COc3ccc(C=C4SC(=S)NC4=O)cc32)c1 [Example 42, 4-(3-Methyl-5-morpholin-4-ylmethyl-benzyl)-6-(4-oxo-2-thioxo-thiazolidin-5-ylidenemethyl)-4H-1,4-benzoxazin-3-one]
1440 nM	O=C1NC(=S)SC1=Cc1ccc2c(c1)N(Cc1cc(-c3ccccc3)cc(-c3ccccc3)c1)C(=O)CO2 [Example 43, 6-(4-Oxo-2-thioxo-thiazolidin-5-ylidenemethyl)-4-1,1′,3′,1″-terphenyl-5′-ylmethyl-4H-1,4-benzoxazin-3-one]
265 nM	O=C1NC(=S)SC1=Cc1ccc2c(c1)N(Cc1cc(OS(=O)(=O)C(F)(F)F)cc(OS(=O)(=O)C(F)(F)F)c1)C(=O)CO2 [Example 44, Trifluoro-methanesulfonic acid 3-[3-oxo-6-(4-oxo-2-thioxo-thiazolidin-5-ylidenemethyl)-2,3-dihydro-1,4-benzoxazin-4-ylmethyl]-5-trifluoromethanesulfonyloxy-phenyl ester]
336 nM	CC(C)(C)c1cc(CN2C(=O)COc3ccc(C=C4SC(=S)NC4=O)cc32)cc(C(C)(C)C)n1 [Example 45, 4-(2,6-Di-tert-butyl-pyridin-4-ylmethyl)-6-(4-oxo-2-thioxo-thiazolidin-5-ylidenemethyl)-4H-1,4-benzoxazin-3-one]
8 nM	O=C1NC(=S)SC1=Cc1cc(F)c2c(c1)N(Cc1ccccc1)C(=O)CO2 [Example 46, 4-Benzyl-8-fluoro-6-(4-oxo-2-thioxo-thiazolidin-5-ylidenemethyl)-4H-1,4-benzoxazin-3-one]
320 nM	CC(C)(C)c1cc(CN2C(=O)COc3c(Cl)cc(C=C4SC(=S)NC4=O)cc32)cc(C(C)(C)C)c1 [Example 47, 8-Chloro-4-(3,5-di-tert-butyl-benzyl)-6-(4-oxo-2-thioxo-thiazolidin-5-ylidenemethyl)-4H-1,4-benzoxazin-3-one]
42 nM	CN1CCN(Cc2cccc(CN3C(=O)COc4ccc(C=C5SC(=S)NC5=O)cc43)c2)CC1 [Example 48, 4-[3-(4-Methyl-piperazin-1-ylmethyl)-benzyl]-6-(4-oxo-2-thioxo-thiazolidin-5-ylidenemethyl)-4H-1,4-benzoxazin-3-one]
61 nM	O=C1COc2c(Cl)cc(C=C3SC(=S)NC3=O)cc2N1 [Example 49, 8-Chloro-6-(4-oxo-2-thioxo-thiazolidin-5-ylidenemethyl)-4H-1,4-benzoxazin-3-one]
10 nM	O=C1NC(=S)SC1=Cc1cc(Cl)c2c(c1)N(Cc1ccccc1)C(=O)CO2 [Example 50, 4-Benzyl-8-chloro-6-(4-oxo-2-thioxo-thiazolidin-5-ylidenemethyl)-4H-1,4-benzoxazin-3-one]
165 nM	COc1cc(C=C2SC(=S)NC2=O)cc2c1OCC(=O)N2Cc1cc(C(C)(C)C)cc(C(C)(C)C)c1 [Example 51, 4-(3,5-Di-tert-butyl-benzyl)-8-methoxy-6-(4-oxo-2-thioxo-thiazolidin-5-ylidenemethyl)-4H-1,4-benzoxazin-3-one]
